Measured values from patent US8357707B2, “2-carboxamide cycloamino ureas” (Novartis AG, priority 2009, dated 2013).

Key:
Format in all cases: biochemical
PI3Kδ = biological target: T1, PI3Kδ (Homo sapiens, UniProt O00329); experiment: PI3K KinaseGlo assay, PI3Kdelta; details: 10 nM enzyme, 1 μM ATP, 30 mins
T1 construct: His tag (C); made in house; host or cells: Tn5 insect cells, baculovirus BV1060 (vector LR415)

PI3Kβ = biological target: T2, PI3Kβ (Homo sapiens, UniProt P42338); experiment: PI3K KinaseGlo assay, PI3Kbeta; details: 25 nM enzyme, 1 μM ATP, 30 mins
T2 construct: His tag (C); made in house; host or cells: Tn5 insect cells, baculovirus BV949 (vector LR280)

PI3Kα = biological target: T3, PI3Kα (Homo sapiens, UniProt P42336); experiment: PI3K KinaseGlo assay, PI3Kalpha; details: 10 nM enzyme, 1 μM ATP, 30 mins
T3 construct: His tag (C); made in house; host or cells: Tn5 insect cells, baculovirus BV-1075

PI3Kγ = biological target: T4, PI3Kγ (Homo sapiens, UniProt P48736, Q459R); experiment: PI3K KinaseGlo assay, PI3Kgamma; details: 150 nM enzyme, 1 μM ATP, 90 mins
T4 construct: Constructs lacking the N-terminal 144 aa; His tag (C); made in house; host or cells: Tn5 insect cells, baculovirus BV950; construct from the Roger Williams lab (MRC LMB)
T4 sequence (P48736 with tags, fused parts or gaps Q459R): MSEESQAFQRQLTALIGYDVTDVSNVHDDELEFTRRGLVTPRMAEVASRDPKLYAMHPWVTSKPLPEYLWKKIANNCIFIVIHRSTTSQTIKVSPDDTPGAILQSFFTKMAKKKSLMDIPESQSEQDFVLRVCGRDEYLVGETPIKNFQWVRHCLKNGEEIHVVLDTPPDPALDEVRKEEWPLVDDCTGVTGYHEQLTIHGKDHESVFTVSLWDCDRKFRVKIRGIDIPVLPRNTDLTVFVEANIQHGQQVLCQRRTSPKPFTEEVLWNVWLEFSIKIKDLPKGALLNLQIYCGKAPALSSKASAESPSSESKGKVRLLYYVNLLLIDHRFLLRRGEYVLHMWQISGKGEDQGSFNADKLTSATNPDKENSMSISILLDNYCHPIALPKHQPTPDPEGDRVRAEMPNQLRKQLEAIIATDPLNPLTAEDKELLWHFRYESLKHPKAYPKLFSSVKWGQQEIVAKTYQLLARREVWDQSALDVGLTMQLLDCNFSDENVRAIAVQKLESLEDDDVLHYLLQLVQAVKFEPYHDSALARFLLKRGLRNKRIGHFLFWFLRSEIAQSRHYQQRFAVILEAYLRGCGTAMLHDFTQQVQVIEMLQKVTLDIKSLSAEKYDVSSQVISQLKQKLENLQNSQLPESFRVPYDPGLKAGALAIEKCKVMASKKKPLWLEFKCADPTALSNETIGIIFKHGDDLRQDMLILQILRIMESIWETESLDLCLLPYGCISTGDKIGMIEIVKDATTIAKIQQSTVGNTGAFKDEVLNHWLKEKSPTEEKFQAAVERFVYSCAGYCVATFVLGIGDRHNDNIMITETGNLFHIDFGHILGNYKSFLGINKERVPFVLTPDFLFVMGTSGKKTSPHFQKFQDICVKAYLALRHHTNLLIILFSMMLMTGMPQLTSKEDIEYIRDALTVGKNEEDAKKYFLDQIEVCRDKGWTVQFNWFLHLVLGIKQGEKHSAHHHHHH

T1 sequence (O00329 with tags, fused parts or gaps): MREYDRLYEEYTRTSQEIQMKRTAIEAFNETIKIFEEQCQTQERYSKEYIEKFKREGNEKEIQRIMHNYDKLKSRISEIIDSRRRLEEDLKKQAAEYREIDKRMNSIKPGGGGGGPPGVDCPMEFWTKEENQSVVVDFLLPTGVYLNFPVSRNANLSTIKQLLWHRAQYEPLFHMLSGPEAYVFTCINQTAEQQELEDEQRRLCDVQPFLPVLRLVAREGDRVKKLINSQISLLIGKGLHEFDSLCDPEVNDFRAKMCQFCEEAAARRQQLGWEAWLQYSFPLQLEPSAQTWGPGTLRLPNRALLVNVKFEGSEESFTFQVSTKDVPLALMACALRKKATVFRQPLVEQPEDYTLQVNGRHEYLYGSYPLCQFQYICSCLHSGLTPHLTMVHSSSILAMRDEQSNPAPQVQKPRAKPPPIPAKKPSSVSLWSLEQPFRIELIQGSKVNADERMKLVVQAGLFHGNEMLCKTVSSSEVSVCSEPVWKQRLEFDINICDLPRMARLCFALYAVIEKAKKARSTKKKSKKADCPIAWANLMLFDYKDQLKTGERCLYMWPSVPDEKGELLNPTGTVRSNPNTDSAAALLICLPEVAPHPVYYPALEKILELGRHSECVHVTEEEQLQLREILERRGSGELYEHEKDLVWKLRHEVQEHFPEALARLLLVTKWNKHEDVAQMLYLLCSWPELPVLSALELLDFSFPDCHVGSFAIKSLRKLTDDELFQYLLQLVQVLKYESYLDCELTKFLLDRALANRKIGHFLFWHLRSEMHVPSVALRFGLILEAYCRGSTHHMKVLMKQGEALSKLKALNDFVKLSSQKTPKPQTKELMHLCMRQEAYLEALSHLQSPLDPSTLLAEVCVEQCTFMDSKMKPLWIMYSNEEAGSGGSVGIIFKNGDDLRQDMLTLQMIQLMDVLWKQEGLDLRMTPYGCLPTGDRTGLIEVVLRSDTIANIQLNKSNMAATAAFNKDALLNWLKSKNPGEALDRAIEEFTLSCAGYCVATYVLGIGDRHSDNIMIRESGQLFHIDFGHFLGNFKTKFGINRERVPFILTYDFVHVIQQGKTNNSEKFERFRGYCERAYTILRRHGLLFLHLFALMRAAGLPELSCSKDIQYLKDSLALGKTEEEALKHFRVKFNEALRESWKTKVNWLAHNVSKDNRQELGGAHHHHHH
T2 sequence (P42338 with tags, fused parts or gaps): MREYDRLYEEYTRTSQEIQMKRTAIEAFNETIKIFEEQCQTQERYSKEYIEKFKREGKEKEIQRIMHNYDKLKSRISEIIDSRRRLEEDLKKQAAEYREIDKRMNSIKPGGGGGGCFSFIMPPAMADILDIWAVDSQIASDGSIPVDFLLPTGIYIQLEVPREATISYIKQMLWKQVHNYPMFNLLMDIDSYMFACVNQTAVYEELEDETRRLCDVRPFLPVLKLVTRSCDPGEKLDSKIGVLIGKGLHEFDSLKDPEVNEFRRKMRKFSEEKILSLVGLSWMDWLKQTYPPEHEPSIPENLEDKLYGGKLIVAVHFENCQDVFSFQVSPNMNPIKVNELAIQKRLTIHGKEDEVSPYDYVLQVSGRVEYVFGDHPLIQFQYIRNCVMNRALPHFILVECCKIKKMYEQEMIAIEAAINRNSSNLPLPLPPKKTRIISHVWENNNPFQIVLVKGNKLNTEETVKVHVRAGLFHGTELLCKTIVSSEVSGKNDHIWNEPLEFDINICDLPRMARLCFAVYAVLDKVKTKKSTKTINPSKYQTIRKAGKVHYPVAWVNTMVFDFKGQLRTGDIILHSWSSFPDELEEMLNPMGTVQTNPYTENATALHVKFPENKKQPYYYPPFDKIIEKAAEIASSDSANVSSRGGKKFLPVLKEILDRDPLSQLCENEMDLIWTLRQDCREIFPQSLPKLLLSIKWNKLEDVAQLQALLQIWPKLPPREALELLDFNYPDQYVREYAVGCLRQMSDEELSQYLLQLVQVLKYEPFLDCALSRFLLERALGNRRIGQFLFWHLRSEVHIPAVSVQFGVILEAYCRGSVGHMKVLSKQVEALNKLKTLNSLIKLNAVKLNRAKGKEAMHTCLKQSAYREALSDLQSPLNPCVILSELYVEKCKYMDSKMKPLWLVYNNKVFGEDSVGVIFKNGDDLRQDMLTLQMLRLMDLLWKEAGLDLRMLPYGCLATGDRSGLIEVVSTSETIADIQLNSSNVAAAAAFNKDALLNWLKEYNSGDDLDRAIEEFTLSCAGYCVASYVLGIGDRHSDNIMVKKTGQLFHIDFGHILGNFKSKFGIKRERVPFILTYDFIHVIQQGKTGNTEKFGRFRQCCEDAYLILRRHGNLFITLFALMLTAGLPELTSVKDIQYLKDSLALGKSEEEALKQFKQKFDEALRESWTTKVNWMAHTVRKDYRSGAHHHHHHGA
T3 sequence (P42336 with tags, fused parts or gaps): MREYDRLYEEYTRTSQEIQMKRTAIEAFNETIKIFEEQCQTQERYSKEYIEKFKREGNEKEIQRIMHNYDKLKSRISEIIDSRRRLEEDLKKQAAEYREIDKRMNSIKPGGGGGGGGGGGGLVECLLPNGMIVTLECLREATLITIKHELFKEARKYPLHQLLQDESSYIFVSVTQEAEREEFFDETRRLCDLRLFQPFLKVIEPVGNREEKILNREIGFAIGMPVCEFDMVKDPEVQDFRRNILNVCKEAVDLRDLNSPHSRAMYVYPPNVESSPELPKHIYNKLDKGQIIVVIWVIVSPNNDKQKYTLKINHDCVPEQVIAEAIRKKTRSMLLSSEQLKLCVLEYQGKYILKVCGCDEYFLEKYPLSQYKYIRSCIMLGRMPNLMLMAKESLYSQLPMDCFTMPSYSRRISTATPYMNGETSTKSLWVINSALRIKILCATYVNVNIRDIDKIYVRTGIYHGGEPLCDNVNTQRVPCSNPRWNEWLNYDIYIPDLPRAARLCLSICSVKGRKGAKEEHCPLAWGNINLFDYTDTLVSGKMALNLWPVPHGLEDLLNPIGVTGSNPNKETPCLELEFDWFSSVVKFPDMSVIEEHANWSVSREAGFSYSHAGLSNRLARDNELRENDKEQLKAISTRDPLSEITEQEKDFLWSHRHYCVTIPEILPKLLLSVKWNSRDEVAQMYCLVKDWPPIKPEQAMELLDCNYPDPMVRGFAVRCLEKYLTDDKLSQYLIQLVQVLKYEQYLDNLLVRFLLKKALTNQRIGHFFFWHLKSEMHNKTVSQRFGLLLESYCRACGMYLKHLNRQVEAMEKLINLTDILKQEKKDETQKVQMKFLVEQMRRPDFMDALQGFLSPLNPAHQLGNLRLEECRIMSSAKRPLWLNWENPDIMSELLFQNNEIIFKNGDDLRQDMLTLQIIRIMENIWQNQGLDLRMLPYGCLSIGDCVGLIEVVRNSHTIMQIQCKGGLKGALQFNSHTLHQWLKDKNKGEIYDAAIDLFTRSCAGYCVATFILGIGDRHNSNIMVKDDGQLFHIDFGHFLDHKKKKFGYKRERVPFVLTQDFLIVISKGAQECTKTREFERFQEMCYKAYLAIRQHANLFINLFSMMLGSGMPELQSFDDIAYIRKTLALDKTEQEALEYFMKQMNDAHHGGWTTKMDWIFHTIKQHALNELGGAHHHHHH

IC50 (PI3Kδ) [nM]	IC50 (PI3Kβ) [nM]	IC50 (PI3Kα) [nM]	IC50 (PI3Kγ) [nM]	Compound
24	135	7	98	CC(C)(C)c1ncc2c(n1)-c1sc(NC(=O)N3CCC3C(N)=O)nc1CC2 (centres unmarked) [Example 24, Azetidine-1,2-dicarboxylic acid 2-amide 1-[(8-tert-butyl-4,5-dihydro-thiazolo[4,5-h]quinazolin-2-yl)-amide]]
45	346	5.5	122	CC(C)(C)c1ncc2c(n1)-c1sc(NC(=O)N3CC[C@H]3C(N)=O)nc1CC2 [Example 25, (S)-Azetidine-1,2-dicarboxylic acid 2-amide 1-[(8-tert-butyl-4,5-dihydro-thiazolo[4,5-h]quinazolin-2-yl)-amide]]
58	328	6.5	138	CCN(CC)c1ncc2c(n1)-c1sc(NC(=O)N3C[C@@H](O)C[C@H]3C(N)=O)nc1CC2 [Example 26, (2S,4S)-4-Hydroxy-pyrrolidine-1,2-dicarboxylic acid 2-amide 1-[(8-diethylamino-4,5-dihydro-thiazolo[4,5-h]quinazolin-2-yl)-amide]]
72	397	4.5	97	CCN(CC)c1ncc2c(n1)-c1sc(NC(=O)N3C[C@H](O)C[C@H]3C(N)=O)nc1CC2 [Example 27, (2S,4R)-4-Hydroxy-pyrrolidine-1,2-dicarboxylic acid 2-amide 1-[(8-diethylamino-4,5-dihydro-thiazolo[4,5-h]quinazolin-2-yl)-amide]]
294	2140	23	119	CC(C)(C)c1nc2c(s1)CCc1nc(NC(=O)N3CC[C@H]3C(N)=O)sc1-2 [Example 30, (S)-Azetidine-1,2-dicarboxylic acid 2-amide 1-[(7-tert-butyl-4,5-dihydro-benzo[1,2-d;3,4-d′]bisthiazol-2-yl)-amide]]
1940	5820	51.5	1230	CN(C)[C@@H]1C[C@@H](C(N)=O)N(C(=O)Nc2nc3c(s2)-c2nc(C(C)(C)C)sc2CC3)C1 [Example 31, (2S,4R)-4-Dimethylamino-pyrrolidine-1,2-dicarboxylic acid 2-amide 1-[(7-tert-butyl-4,5-dihydro-benzo[1,2-d;3,4-d′]bisthiazol-2-yl)-amide]]
43	1090	7	131	CC(C)(CF)c1nc2c(s1)CCc1nc(NC(=O)N3CCC[C@H]3C(N)=O)sc1-2 [Example 32, (S)-Pyrrolidine-1,2-dicarboxylic acid 2-amide 1-{[7-(2-fluoro-1,1-dimethyl-ethyl)-4,5-dihydro-benzo[1,2-d;3,4-d′]bisthiazol-2-yl]-amide}]

Compound	IC50 (PI3Kδ) [nM]	IC50 (PI3Kβ) [nM]	IC50 (PI3Kα) [nM]	IC50 (PI3Kγ) [nM]
(R)-2-Benzyl-pyrrolidine-1,2-dicarboxylic acid 2-amide 1-[(8-diethylamino-4,5-dihydro-thiazolo[4,5-h]quinazolin-2-yl)-amide] [Example 3]	740	127	45	1590
